The values that follow come from patent publication US20240270748A1 (Merck Patent GmbH, priority 2021, published 2024).

pIC50: −log10 of the molar value.

The subject of test [1] is NCI-H226 cells. Description: Viability assay in NCI-H226 (Yap-dependent) cells, CyQuant. It is filed as cell-based, human. The conditions noted are these: Homo sapiens, NCI-H226, 96 h. The method, boiled down: (§1)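 Seeded cells were dosed 24 h later in duplicate (10-point, 1:3 dilutions, top 30 μM final, 0.3% DMSO) and incubated 96 h at 37 °C. Viability was read with CyQUANT DNA dye after 1 h, fluorescence bottom read. NCI-H226 in RPMI 1640 medium; SW620 YAP/TAZ CRISPR knockout in DMEM/F-12 medium.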

Test [2] relates to YAP-TEAD interaction. In words: SK-HEP-1 reporter assay (8xTEAD responsive elements driving NanoLuc luciferase). Format: cell-based. The conditions noted are these: Homo sapiens, SK-HEP1, SK-HEP-1 reporter assay; class symbols. The method in brief: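 SK-HEP-1 cells stably carrying 8×TEAD-driven NanoLuc treated in duplicate, 10-point dose from 30 μM final, 0.3% DMSO, 24 h at 37° C. Luminescence after NanoGlo lysis/substrate addition; IC50 calculated from dose response.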
(In a reporter assay the amount or activity of a reporter protein is the signal.)

In test [3] the test system is SW620 Yap KO cells. In words: Viability assay in SW620 Yap KO (Yap independent) cells, CyQuant. Format: cell-based. Conditions: Homo sapiens, SW-620, 96 h. The method in brief: as §1
Where [4] appears, read: n.d. = value not detectable below threshold given in parentheses, ND = not determinable within the entire range.

In general, pIC50 refers to the IC50 on a negative log10 scale, so that one unit is a factor of ten. With `Cn1nc2c3cc(C(=O)N=S(C)(=O)CCCO)ccc3n(-c3ccc(C(F)(F)F)cc3)c2n1` (stereo not drawn) [Example C25, N-[(3-hydroxypropyl)(methyl)oxo -¿6-sulfanylidene]-2-methyl-4-[4-(trifluoromethyl)phenyl]-2H,4H-[1,2,3]triazolo[4,5-b]indole-7-carboxamide], the negative logarithm of the IC50 (pIC50) in test [1] (class symbols) was 7.00 to 9.00; in test [2], 7.00 to 8.00; in test [3] (setting [4]), below 4.52.
On to `Cn1cc2c3cc(C(=O)O)ccc3n(C34CC(C(F)(F)F)(C3)C4)c2n1` [Example C28, 2-methyl-8-[3-(trifluoromethyl)-bicyclo[1.1.1]pentan-1-yl]-2H,8H-pyrazolo[3,4-b]indole-5-carboxylic acid], for which the negative logarithm of the IC50 (pIC50) in test [1] (n.d. = value not detectable below threshold given in parentheses) is below 5.00; in test [2], 7.00 to 8.00; in test [3] (setting [4]), below 4.52.
Take `Cc1snc2c1c1cc(C(=O)N=S(C)(=O)CCO)ccc1n2-c1ccc(C(F)(F)F)cc1` (stereo not drawn) [Example C30, N-[(2-hydroxyethyl)(methyl)oxo-¿6-sulfanylidene]-3-methyl-8-[4-(trifluoromethyl)phenyl]-8H-[1,2]thiazolo[3,4-b]indole-5-carboxamide]: the negative-log IC50 (pIC50) was 7.00 to 9.00 in test [1] (class symbols), 7.00 to 8.00 in test [2] and below 5.52 in test [3] (setting [4]).
The matching figures for `Cn1nc2c3cc(C(=O)N=S(C)(=O)CCO)ccc3n(-c3ccc(C(F)(F)F)cc3)c2n1` (stereo not drawn) [Example C31, N-[(2-hydroxyethyl)(methyl)oxo-A6-sulfanylidene]-2-methyl-4-[4-(trifluoromethyl)phenyl]-2H,4H-[1,2,3]triazolo[4,5-b]indole-7-carboxamide]: 7.00 to 9.00, 7.00 to 8.00 and below 4.52.
The corresponding values for `O=C(O)c1ccc2c(c1)c1cn(C(F)(F)F)nc1n2-c1ccc(C(F)(F)F)cc1` [Example C35, 2-(trifluoromethyl)-8-[4-(trifluoromethyl)phenyl]-2H,8H-pyrazolo[3,4-b]indole-5-carboxylic acid] are 5.00 to 6.00, 7.00 to 8.00 and below 4.52.
The corresponding values for `Cc1snc2c1c1cc(C(=O)NC3CC3)ccc1n2-c1ccc(C(F)(F)F)cc1` [Example C41, N-cyclopropyl-3-methyl-8-[4-(trifluoromethyl)phenyl]-8H-[1,2]thiazolo [3,4-b]indole-5-carboxamide] are 7.00 to 9.00, 7.00 to 8.00 and below 4.52.
Take `Cc1snc2c1c1cc(C(=O)NCc3ccccn3)ccc1n2-c1ccc(C(F)(F)F)cc1` [Example C42, 3-methyl-N-[(pyridin-2-yl)methyl]-8-[4-(trifluoromethyl)phenyl]-8H-[1,2]thiazolo[3,4-b]indole-5-carboxamide]: the pIC50 in test [1] (class symbols) is 7.00 to 9.00; in test [2], 7.00 to 8.00; in test [3] (setting [4]), below 4.52.
Turning to `C[C@@H](CCN(C)C(=O)c1ccc2c(c1)c1cn(C)nc1n2-c1ccc(C(F)(F)F)cc1)NC(=O)c1ccc2c(c1)c1cn(C)nc1n2-c1ccc(C(F)(F)F)cc1` [Example C48, N,2-dimethyl-N-[(3S)-3-({2-methyl-8-[4-(trifluoromethyl)phenyl]-2H,8H-pyrazolo[3,4-b]indol-5-yl}formamido)butyl]-8-[4-(trifluoromethyl)phenyl]-2H,8H-pyrazolo[3,4-b]indole-5-carboxamide], the negative logarithm of the IC50 (pIC50) in test [1] (class symbols) is 5.00 to 6.00; in test [2], 5.00 to 7.00; in test [3] (setting [4]), below 5.49.
Take `Cn1cc2c3cc(C4CC(Oc5cncnc5)=NO4)ccc3n(-c3ccc(C(F)(F)F)cc3)c2n1` (stereo not drawn) [Example C50, 5-[(5-{2-methyl-8-[4-(trifluoromethyl)phenyl]-2H,8H-pyrazolo[3,4-b]indol-5-yl}-4,5-dihydro-1,2-oxazol-3-yl)oxy]pyrimidine]: the values for the pIC50 in test [1] (class symbols), in test [2] and in test [3] (setting [4]) were 6.00 to 7.00, 5.00 to 7.00 and below 4.52, respectively.
As for `CNC(=O)c1ccc2c(c1)c1c(C)snc1n2-c1ccc(C(F)(F)F)cc1` [Example C51, N,3-dimethyl-8-[4-(trifluoromethyl)phenyl]-8H-[1,2]thiazolo[3,4-b]indole-5-carboxamide], the pIC50 in test [1] (class symbols) is 7.00 to 9.00; in test [2], 7.00 to 8.00; in test [3] (class symbols), 5.00 to 6.00.
With `Cc1snc2c1c1cc(C(=O)NCC(C)(C)O)ccc1n2-c1ccc(C(F)(F)F)cc1` [Example C52, N-(2-hydroxy-2-methylpropyl)-3-methyl-8-[4-(trifluoromethyl)phenyl]-8H-[1,2]thiazolo[3,4-b]indole-5-carboxamide], the pIC50 in test [1] (class symbols) is 7.00 to 9.00; in test [2], 7.00 to 8.00; in test [3] (setting [4]) it was below 5.49.
The matching figures for `Cn1cc2c3cc(C(=O)NCc4ccccc4)ccc3n(-c3ccc(C(F)(F)F)cc3)c2n1` [Example C56, N-benzyl-2-methyl-8-[4-(trifluoromethyl)phenyl]-2H,8H-pyrazolo[3,4-b]indole-5-carboxamide]: 7.00 to 9.00, 7.00 to 8.00 and below 4.52.
The corresponding values for `Cn1cc2c3cc(S(=O)(=O)NCCO)ccc3n(-c3ccc(C(F)(F)F)cc3)c2n1` [Example C57, N-(2-hydroxyethyl)-2-methyl-8-[4-(trifluoromethyl)phenyl]-2H,8H-pyrazolo[3,4-b]indole-5-sulfonamide] are 5.00 to 6.00, 7.00 to 8.00 and below 4.52.
Consider `Cc1snc2c1c1cc(C(=O)NCc3ccncc3)ccc1n2-c1ccc(C(F)(F)F)cc1` [Example C62, 3-methyl-N-[(pyridin-4-yl)methyl]-8-[4-(trifluoromethyl)phenyl]-8H-[1,2]thiazolo[3,4-b]indole-5-carboxamide], for which the results for the pIC50 in test [1] (class symbols), in test [2] and in test [3] (setting [4]) were 7.00 to 9.00, 7.00 to 8.00 and below 5.49, respectively.
In the case of `Cc1snc2c1c1cc(C(=O)NCc3ccncn3)ccc1n2-c1ccc(C(F)(F)F)cc1` [Example C64, 3-methyl-N-[(pyrimidin-4-yl)methyl]-8-[4-(trifluoromethyl)phenyl]-8H-[1,2]thiazolo[3,4-b]indole-5-carboxamide], the negative logarithm of the IC50 (pIC50) in test [1] (class symbols) was 7.00 to 9.00; in test [2] it was 7.00 to 8.00; in test [3] (setting [4]), below 5.49.
The corresponding values for `Cc1snc2c1c1cc(C(=O)NCCO)ccc1n2-c1ccc(C(F)(F)F)cc1` [Example C65, N-(2-hydroxyethyl)-3-methyl-8-[4-(trifluoromethyl)phenyl]-8H-[1,2]thiazolo[3,4-b]indole-5-carboxamide] are 7.00 to 9.00, 7.00 to 8.00 and below 5.49.
The matching figures for `Cc1snc2c1c1cc(C(=O)N[C@H](C)CO)ccc1n2-c1ccc(C(F)(F)F)cc1` [Example C66, N-[(2R)-1-hydroxypropan-2-yl]-3-methyl-8-[4-(trifluoromethyl)phenyl]-8H-[1,2]thiazolo[3,4-b]indole-5-carboxamide]: 7.00 to 9.00, 7.00 to 8.00 and below 5.49.
The matching figures for `Cc1snc2c1c1cc(C(=O)N[C@@H](CO)c3ccccn3)ccc1n2-c1ccc(C(F)(F)F)cc1` [Example C67, N-[(1R)-2-hydroxy-1-(pyridin-2-yl)ethyl]-3-methyl-8-[4-(trifluoromethyl)phenyl]-8H-[1,2]thiazolo[3,4-b]indole-5-carboxamide]: 7.00 to 9.00, 7.00 to 8.00 and below 5.49.
